Experimental findings from patent US20050214316A1 (priority 2003, published 2005) are described below.

Read-outs that look alike come from different tables or passages of the source. Marks after values point to notes of the source that are not given here.

Series [1] has as its system commercial broilers (trials 1 and 2), SPF broilers (trial 3). As to conditions: 7 dpi.
Series [2] shares this test system. Conditions: in vivo.
Series [3] has the same test system. Conditions: in vivo. This is another data set of the same source.
Series [4] deals with chickens. Details: species or system chicken. As to conditions: in vivo.
The subject of series [5] is commercial broilers (trials 1 and 2), SPF broilers (trial 3). Conditions: in vivo. This is another data set of the same source.
For series [6] the test system is unchanged. The series is classed as in vivo, chicken. Conditions: all three trials, vs saline controls.
The subject of series [7] is 2 week-old chickens. The series is classed as in vivo, chicken. As to conditions: for CBH-2 = (skin thickness, PHA-P injected foot) − (skin thickness, PSS injected foot) / CBH-1 = (skin thickness at 12 h post-injection, left foot) − (pre-injection skin thickness, left foot): 2 week-old chickens, mean ± standard deviation, n = 4; for CBH-1 = (skin thickness at 12 h post-injection, left foot) − (pre-injection skin thickness, left foot): PHA-P.

In the case of `O=P1(N(CCCl)CCCl)NCCCO1` (stereo not shown) [CP, Cyclophosphamide monohydrate], the thymus size result in series [1] was “smaller than the rest of the groups”. For the same compound, the clinical appearance entry in series [2] was “decreased feathering and appeared weak”. In series [3], the bursal microscopic lesions result was “marked lymphocytic depletion and atrophy of the bursa”. The “humoral immune response to NDV vaccination” value in series [4] is listed as “significantly reduced”. For the same compound, the “Proventriculus score (severity of proventricular lesions)” value in series [5] is 1.00^a. In addition, in series [6], the bursa size result is listed as “significantly smaller”. In addition, the “CBH-2 = (skin thickness, PHA-P injected foot) − (skin thickness, PSS injected foot)” value is “.73 ± .01” in series [7] (Trial 1, IBDV strain Variant E); “.69 ± .2” in series [7] (Trial 2, IBDV strain STC); “.31 ± .07” in series [7] (Trial 3, IBDV strain STC). Besides, the “CBH-1 = (skin thickness at 12 h post-injection, left foot) − (pre-injection skin thickness, left foot)” value in series [7] (Trial 1, IBDV strain Variant E) was “.67 ± .07”; in series [7] (Trial 2, IBDV strain STC) it was “.69 ± .18”; in series [7] (Trial 3, IBDV strain STC), “.34 ± .06”. The CBH response result in series [7] (vs saline control group) is on record as “small reduction”.
